Test results reported in patent US6455248B1, “Reagents and kits for detecting fungal pathogens in a biological sample” (Miami University, priority 1996, dated 2002).

Legend:
[1] = target: T1, α-aminoadipate reductase (AAR) (Candida albicans, UniProt Q12572); assay: Feedback inhibition of aminoadipate reductase activity in dialyzed cell extract; type: biochemical; conditions: for AAR activity: cell extract alone 19.76
T1 construct: The crude extracts were dialyzed and used as the enzyme source for the AAR activity; endogenous in cells; host or cells: C. albicans cells, dialyzed crude extract
T1 sequence (Q12572 1-1391): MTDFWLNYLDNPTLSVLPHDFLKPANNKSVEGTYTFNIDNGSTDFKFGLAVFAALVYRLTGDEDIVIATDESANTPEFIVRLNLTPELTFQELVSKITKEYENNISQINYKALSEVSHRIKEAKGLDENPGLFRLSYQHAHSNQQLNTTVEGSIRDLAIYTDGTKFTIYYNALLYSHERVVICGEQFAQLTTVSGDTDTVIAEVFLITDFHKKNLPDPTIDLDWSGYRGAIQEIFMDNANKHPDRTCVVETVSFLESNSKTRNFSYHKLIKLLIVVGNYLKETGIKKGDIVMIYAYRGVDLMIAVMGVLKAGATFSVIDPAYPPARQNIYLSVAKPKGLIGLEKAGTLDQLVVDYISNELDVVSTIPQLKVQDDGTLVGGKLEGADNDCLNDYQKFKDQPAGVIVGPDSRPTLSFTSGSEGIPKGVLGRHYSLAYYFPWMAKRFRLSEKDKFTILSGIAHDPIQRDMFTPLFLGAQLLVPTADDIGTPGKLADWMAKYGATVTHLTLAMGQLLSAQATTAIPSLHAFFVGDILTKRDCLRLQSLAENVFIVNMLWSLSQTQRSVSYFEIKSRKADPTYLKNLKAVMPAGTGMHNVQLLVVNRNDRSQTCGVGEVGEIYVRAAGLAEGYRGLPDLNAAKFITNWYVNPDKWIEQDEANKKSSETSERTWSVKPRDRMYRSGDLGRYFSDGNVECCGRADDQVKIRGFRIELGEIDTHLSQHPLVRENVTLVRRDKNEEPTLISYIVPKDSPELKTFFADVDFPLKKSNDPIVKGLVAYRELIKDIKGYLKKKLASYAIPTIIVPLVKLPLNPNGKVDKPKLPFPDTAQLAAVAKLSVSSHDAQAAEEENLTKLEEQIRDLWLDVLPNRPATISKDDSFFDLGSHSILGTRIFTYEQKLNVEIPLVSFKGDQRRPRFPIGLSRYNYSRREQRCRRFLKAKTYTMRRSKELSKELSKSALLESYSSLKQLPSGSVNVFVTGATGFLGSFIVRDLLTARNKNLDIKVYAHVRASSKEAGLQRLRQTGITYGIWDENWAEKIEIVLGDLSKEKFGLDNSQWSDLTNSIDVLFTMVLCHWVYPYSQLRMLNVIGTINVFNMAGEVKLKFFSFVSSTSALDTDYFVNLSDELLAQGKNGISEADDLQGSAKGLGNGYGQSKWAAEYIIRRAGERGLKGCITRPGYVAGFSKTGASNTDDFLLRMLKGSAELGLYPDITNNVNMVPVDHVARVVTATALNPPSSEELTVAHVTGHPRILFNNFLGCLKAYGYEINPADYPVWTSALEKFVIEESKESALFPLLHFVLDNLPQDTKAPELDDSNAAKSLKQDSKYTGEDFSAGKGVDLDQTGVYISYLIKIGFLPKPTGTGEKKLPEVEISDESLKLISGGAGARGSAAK
Experimental: (§1) Cells were grown in appropriate media at 30° C. with constant shaking and harvested during the late logarithmic phase. Crude enzyme preparations were obtained by disruption of the cells in a Braun homogenizer flask in the case of S. cerevisiae (Sinha and Bhattacharjee 1971), and by vortexing with glass beads for 30 s with 30 s intervals at 4° C. for a total of 5 mins in case of C. albicans. The crude extracts were dialyzed and used as the enzyme source for the AAR activity. The amount of protein in the dialyzed extracts was determined according to the procedure of Bradford (1976).
The AAR activity was assayed using previously described procedure (Sagisaka and Shimura 1962). The reaction mixture consisted of DL aminoadipate, 12.5 mM; ATP, 15 mM; MgCl2, 10 mM; reduced glutathione, 1 mM; α-NADPH (tetra sodium salt), 0.625 mM; and Tris HCl, 250 mM (pH8.0). Dialysed cell extract was added to a final concentration of 0.02-1.0 mg of dialyzed protein. Tubes lacking aminoadipate were used as controls. The reaction mixtures were incubated at 30 ° C. for 1 h and terminated by the addition of Iml of 2% p-dimethylaminobenzaldehyde (PDAB) in 2-methoxyethanol. Activity of AAR was reported in units of A460 h-^1 mg protein-^1.
Feedback inhibition by the end product, lysine, was determined by addition of various concentrations of lysine to the reaction mixture. 50 mM lysine inhibited the AAR activity by 70%. However, when a lysine analog, [S-(2-amino ethyl)] L-Cysteine L-thialysine), was used, 1 mM thialysine was sufficient to abolish 92% of the enzyme activity (Table 5).

[2] = test system: AAR of C. albicans WT 9517 cells; assay: AAR activity of cells grown in different media; type: cell-based
Experimental: Yeast strains were maintained on yeast extract-peptone-dextrose medium (YEPD). Minimal medium (MM) consisted of 1% dextrose and 0.67% yeast nitrogen base without amino acid. Minimal medium was supplemented with L-lysine (50 μg/ml) where appropriate. Escherichia coli strains were maintained on Luria Bertani medium. Plasmid containing strains were maintained in L-agar containing ampicillin at a concentration of 50 μg/ml.
as §1
The AAR activity was assayed using previously described procedure (Sagisaka and Shimura 1962). […]
The AAR activity of C. albicans WT 9517 cells was determined for cells grown in minimal medium, minimal medium supplemented with lysine, and YEPD. […]

[3] = test system: LYS2 mRNA; assay: Northern blot analysis of LYS2 mRNA; type: cell-based; conditions: C. albicans WT9517 grown in minimal medium supplemented with lysine
Experimental: Total RNA was isolated from C. albicans WA95 17 cells grown in different media according to the procedure described by Sherman et al. (1986). Total RNA (20 μg/lane) was fractionated by electrophoresis on a 1% agarose gel, transferred to nylon membranes, and hybridized to LYS2 gene and 18 s rDNA radio-labelled probes. The 2.0 kb EcoRI PstI fragment of the LYS2 gene was labelled with [a^32P]DTP by a random primer kit (Gibco BRL) and used as a probe. A plasmid carrying the 18S rDNA was also labeled similarly and used as ribosomal probe. Hybridization was carried out at 60° C. in 0.5 M Sodium phosphate (pH 7.2), 7% SDS, 1% BSA, 1 mM EDTA (pH 8.0). The membrane was washed in 2×SSC and 0.1% SDS at room temperature for 30 min and followed by a wash in 0.5×SSC and 0.1% SDS at 60° C. for 30 min. The membrane was stripped by boiling in 0.1×SSC and 0.1% SDS for 30 min followed by washing with water at 65° C. for 30 min and then reprobed.
To determine if the LYS2 gene expression is controlled at the transcriptional level by lysine and by other amino acids in rich medium, total RNA was extracted from C. albicans WT9517 grown in minimal medium, minimal medium supplemented with lysine, and in YEPD medium. The blot was quantitated using a beta scanner and the AMBIS Image analysis software. […] The LYS2 mRNA level in YEPD grown cells could not be detected. […]

[4] = cell extract + 1 mM inhibitor in reaction mixture
[5] = cell extract + 10 mM inhibitor in reaction mixture

inhibition at 1000 µM ([1]; 1 mM in reaction mixture, read-out: inhibition of AAR enzyme activity) [%]	Compound	AAR activity [1, 4] [A460 h^−1 mg protein^−1]	AAR activity [1, 5] [A460 h^−1 mg protein^−1]	AAR activity ([1]; cell extract + 50 mM inhibitor in reaction mixture) [A460 h^−1 mg protein^−1]	inhibition at 50000 µM ([1]; read-out: inhibition of AAR activity) [%]	repression of AAR activity compared to cells grown in minimal medium ([2]; cells grown in minimal medium supplemented with lysine) [%]	AAR activity ([2]; cells grown in minimal medium supplemented with lysine (L-lysine 50 μg/ml), minimal medium alone 19.79) [A460 h^−1 mg protein^−1]	level of LYS2 mRNA compared to cells grown in minimal medium [3]
	NCCCC[C@H](N)C(=O)O [lysine, L-lysine]	19.34	9.68	5.92	70	40	11.87	significantly lower
92	NCCSC[C@H](N)C(=O)O [thialysine, [S-(2-amino ethyl)] L-Cysteine]	3.58	1.78					
